Assay [1] has as its system M. tuberculosis H37Ra (PZA^S). It is filed as cell-based. Particulars: test tubes, PZA-S1 medium, pH 6.8.
Assay [2] deals with M. tuberculosis H37Ra PZA^R #98. Nature of the assay: microbe, parasite or virus in culture. Type of assay: cell-based. The settings on record: Mycobacterium tuberculosis, 504 h, pH 6.8, read-out: MIC of PZA.
Assay [3] concerns M. tuberculosis H37Ra PZA^R #6. Nature of the assay: microbe, parasite or virus in culture. It is filed as cell-based. The settings on record: Mycobacterium tuberculosis, 504 h, pH 6.8, read-out: MIC of PZA.
The subject of assay [4] is M. tuberculosis H37Ra PZA^R #186. Put plainly: microbe, parasite or virus in culture. It is filed as cell-based. The settings on record: Mycobacterium tuberculosis, 504 h, pH 6.8, read-out: MIC of PZA.
Assay [5] relates to M. tuberculosis H37Ra. Nature of the assay: microbe, parasite or virus in culture. It is filed as cell-based, Mycobacterium tuberculosis. The settings on record: for MIC: Mycobacterium tuberculosis, H37RA.
In a further assay the test system is H37Ra. Put plainly: microbe, parasite or virus in culture. It is filed as cell-based, Mycobacterium tuberculosis.
Assay [6] has as its system M. tuberculosis H37Ra PZA^R #106. Nature of the assay: microbe, parasite or virus in culture. It is filed as cell-based. Particulars: Mycobacterium tuberculosis, 504 h, pH 6.8, read-out: MIC of PZA.
The test system of assay [7] is M. tuberculosis H37Ra. Nature of the assay: microbe, parasite or virus in culture. It is filed as cell-based, Mycobacterium tuberculosis. The settings on record: for MIC: Mycobacterium tuberculosis, H37RA. The source holds these as a separate data set.
Assay [8] concerns M. tuberculosis H37Ra. It is filed as cell-based, Mycobacterium tuberculosis.
The test system of assay [9] is M. tuberculosis H37Ra PZA^R #78. Put plainly: microbe, parasite or virus in culture. Type of assay: cell-based. Particulars: Mycobacterium tuberculosis, 504 h, pH 6.8, read-out: MIC of PZA.
The next assay deals with M. tuberculosis. Type of assay: cell-based, Mycobacterium tuberculosis. Particulars: pH 6.8.

Structures are written as SMILES. Converted amounts (≈) assume the structure as drawn. “And” between values parts separate entries of the source, which are not always exact repeats. Identical values can stand only once. “Also recorded” adds a separate entry of the source. Like-named read-outs stand apart in the source and are kept apart here.

With `NC(=O)c1cnccn1` [PZA, Pyrazinamide], the “concentration of PZA at which growth was inhibited” value in assay [1] was 200 µg/mL. Moreover, the MIC in [2] was greater than 800 µg/mL; in assay [3], greater than 800 µg/mL; in [4], greater than 800 µg/mL; in the assay on M. tuberculosis H37Ra [5] (pH 5.5, read-out: MIC for PZA), less than 12.5 µg/mL; in the assay with M. tuberculosis H37Ra [5] (pH 6, read-out: MIC for PZA) it was 100 µg/mL (≈ 812 µM); in the assay on M. tuberculosis H37Ra [5] (pH 7, read-out: MIC for PZA), 25 µg/mL (≈ 203 µM). The MIC was 200 µg/mL (≈ 1620 µM) in the assay with M. tuberculosis H37Ra [5] (pH 8, read-out: MIC for PZA); 200 µg/mL (≈ 1620 µM) in the assay with M. tuberculosis H37Ra [5] (read-out: MIC for PZA); 50 µg/mL with H37Ra (Mycobacterium tuberculosis, H37RA, read-out: MIC of PZA); greater than 800 µg/mL in [6]; 200 µg/mL (≈ 1620 µM) in the assay with M. tuberculosis H37Ra [7] (336 h, pH 6.8); 100 to 200 µg/mL (≈ 812 to 1620 µM) in the assay with M. tuberculosis H37Ra [7] (pH 6.8, read-out: MICs of PZA). In addition, the MIC with M. tuberculosis H37Ra [7] (read-out: MIC of PZA) is 50 µg/mL; in assay [9], greater than 800 µg/mL. Moreover, the “MIC for PZA lower in acidic conditions (pH 6.5 and pH 6.0) than in neutral pH 7.0 conditions” value in the assay with M. tuberculosis H37Ra [5] came out at 8 fold. The growth entry is “−” in the assay with M. tuberculosis H37Ra [5] (pH 5); “− and +” in the assay with M. tuberculosis H37Ra [5] (pH 5.5); “+ and −” in the assay on M. tuberculosis H37Ra [5] (pH 6); “+ and −” in the assay with M. tuberculosis H37Ra [5] (pH 6.5); “+ and −” with M. tuberculosis H37Ra [5] (pH 7); “− and +” in the assay on M. tuberculosis H37Ra [5] (pH 7.5). Further, the growth result is “− and +” in the assay with M. tuberculosis H37Ra [5] (pH 8); “− and +” with M. tuberculosis H37Ra [5] (pH 8.5). The “Percentage of CFU to Z 0” value with H37Ra was 1.20% and 0.14% and 0.02% and 0.08%. Further, the “increase in MIC between 1/100 and 1/10 inoculum size dilutions” value in the assay on M. tuberculosis H37Ra [7] (pH 6.8) is 2-8 fold. The entries for the “lawn formation of M. tuberculosis” value with M. tuberculosis H37Ra [8] (pH 6.6) and in the assay with M. tuberculosis H37Ra [8] (pH 6.8) were “no inhibition” and “inhibited lawn formation”, respectively. For the same molecule, the “growth inhibition, paper disk” value with M. tuberculosis H37Ra [8] (pH 6.8) is listed as “small inhibition zone; also recorded: strong growth inhibition”.

In the assay with M. tuberculosis H37Ra [7] (pH 6.8), `COc1nc2ccc(Br)cc2cc1[C@@H](c1ccccc1)[C@@](O)(CCN(C)C)c1cccc2ccccc12` [bedaquiline] gave an MIC of 0.064 µg/mL (≈ 0.115 µM).

Turning to `CN1CCc2cc3c(c4c2C1Cc1ccccc1-4)OCO3.Cl` (stereo not drawn) [compound 785164], in the assay with M. tuberculosis, the “MIC in the media 7H9” value was no less than 13.97 µg/mL, the “MIC in the media L-Ala” value turned out to be 6.98 µg/mL, the “MIC in the media SBA” value was found to be 3.49 µg/mL and the “MIC in the media SLac” value came out at 1.75 µg/mL.

Regarding `COc1cc2c(cc1O)C[C@H]1c3c(cc4c(c3-2)OCO4)CCN1C` [compound 785178], in the assay with M. tuberculosis, the “MIC in the media 7H9” value was no less than 16.27 µg/mL, the “MIC in the media L-Ala” value stood at 8.13 µg/mL (≈ 25 µM), the “MIC in the media SBA” value was 4.07 µg/mL (≈ 12.5 µM) and the “MIC in the media SLac” value amounted to 4.07 µg/mL (≈ 12.5 µM).

On to `CC[C@@H](CO)NCCN[C@@H](CC)CO` [ethambutol], for which the MIC in the assay with M. tuberculosis H37Ra [7] (336 h, pH 6.8) came to 2 µg/mL (≈ 9.79 µM); against M. tuberculosis H37Ra [7] (pH 6.8) it was 1.6 µg/mL (≈ 7.83 µM).

`CCc1cc(C(N)=S)ccn1` [ethionamide]: the MIC in the assay with M. tuberculosis H37Ra [7] (pH 6.8) was 0.5 µg/mL (≈ 3.01 µM).

With `NNC(=O)c1ccncc1` [isoniazid], the MIC against M. tuberculosis H37Ra [7] (336 h, pH 6.8) was 0.02 µg/mL (≈ 0.146 µM); against M. tuberculosis H37Ra [7] (pH 6.8), 0.06 µg/mL (≈ 0.438 µM).

`CC(=O)NC[C@H]1CN(c2ccc(N3CCOCC3)c(F)c2)C(=O)O1` [linezolid] came in with an MIC in the assay with M. tuberculosis H37Ra [7] (pH 6.8) of 2 µg/mL (≈ 5.93 µM).

As for `COc1c(N2C[C@@H]3CCCN[C@@H]3C2)c(F)cc2c(=O)c(C(=O)O)cn(C3CC3)c12` [moxifloxacin], the MIC with M. tuberculosis H37Ra [7] (pH 6.8) was found to be 0.25 µg/mL (≈ 0.623 µM).

As to `CO[C@H]1/C=C/O[C@@]2(C)Oc3c(C)c(O)c4c(O)c(c(/C=N/N5CCN(C)CC5)c(O)c4c3C2=O)NC(=O)/C(C)=C\C=C\[C@H](C)[C@H](O)[C@@H](C)[C@@H](O)[C@@H](C)[C@H](OC(C)=O)[C@@H]1C` [rifampin], the MIC was 0.13 µg/mL (≈ 0.158 µM) against M. tuberculosis H37Ra [7] (336 h, pH 6.8) and 0.06 µg/mL (≈ 0.0729 µM) against M. tuberculosis H37Ra [7] (pH 6.8).

The molecule `[H]/N=C(/N)N[C@H]1[C@H](O)[C@@H](O)[C@H](O[C@@H]2O[C@@H](C)[C@](O)(C=O)[C@H]2O[C@@H]2O[C@@H](CO)[C@H](O)[C@@H](O)[C@@H]2NC)[C@@H](N/C(N)=N\[H])[C@@H]1O` [streptomycin] registered an MIC against M. tuberculosis H37Ra [7] (pH 6.8) of 0.25 µg/mL (≈ 0.43 µM).
